Data as given in PMC11621054, “Biological evaluation of semi-synthetic isoindolinone isomers produced by Stachybotrys chartarum” (Frontiers in Fungal Biology, 2024).
“Also recorded” adds a separate entry of the source.

How the values were obtained:
HepG2 = test: Micronucleus assay (genotoxicity, OECD 487); format: cell-based, human; conditions: 1 at 25 µM, 3a at 5 and 25 µM
Description: The genotoxic effects of the AcAc ( 1 ) and its semi-synthetic products ( 2a , 2b; 3a , 3b ) were evaluated with the micronucleus assay, performed based on OECD Test guideline 487. HepG2 were cultivated in accordance with the descriptions of Kalinina et al. ([Kalinina et al., 2018]). The cells were seeded with 300,000 cells/slide on Polysine® slides (Epredia™ Polysine™ Microscopic Adhesion Slides, FisherScientific) in quadriPERM® culture dishes (Sarstedt, Nümbrecht, Germany) and cultivated for 24 h. Then, they were incubated with the test compounds (0.5-25 µM) in serum free DMEM for 5 h. As positive control 0.6 µM mitomycin C (MMC) was used. All tested compounds were dissolved in DMSO. Cells were washed with sterile phosphate-buffered saline (PBS) and incubated with 4 µg/mL cytokinesis inhibitor cytochalasin B (Santa Cruz Biotechnology, USA) in DMEM for 19 h. Slides were washed with PBS and cold MeOH. Afterwards, cells were fixated with MeOH at -20 °C for 1 h. […] Subsequently, cells were evaluated using a fluorescence microscope (Zeiss Axio Imager 2, Oberkochen, Germany) with filters of 365/445 nm and 546/575 nm. The micronucleus rate was evaluated by counting 1,000 binucleate cells and binucleate cells with micronuclei on each slide and calculating the proportion of binucleate cells containing one or more micronuclei. […]

human β-FXIIa = biological target: T1, human β-FXIIa (Homo sapiens, UniProt P00748); test: Serine protease inhibition assay, fluorogenic substrate, FXIIa; format: biochemical; conditions: endpoint RFU after 1 h, 25 °C; for inhibition of FXIIa: 200 µM
T1 construct: human β-FXIIa, HFXIIAB, > 95% purity; Molecular Innovations; purchased Molecular Innovations HFXIIAB
T1 sequence (P00748 373-615 limits assumed, other chains not shown): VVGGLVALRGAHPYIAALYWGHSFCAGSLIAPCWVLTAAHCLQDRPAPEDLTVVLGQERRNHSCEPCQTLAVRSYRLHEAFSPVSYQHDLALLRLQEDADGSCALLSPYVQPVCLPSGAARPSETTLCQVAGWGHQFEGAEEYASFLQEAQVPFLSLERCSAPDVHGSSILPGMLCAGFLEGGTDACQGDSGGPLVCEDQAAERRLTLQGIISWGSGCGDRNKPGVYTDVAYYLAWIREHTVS
Description: (§1) The inhibitory activity of further semi-synthesized compounds toward the coagulation factor XIIa, thrombin, FXIa, FXa, and trypsin was measured by quantifying the hydrolysis rate of the fluorogenic substrates as reported previously ([Korff et al., 2020]; [Platte et al., 2021]; [Imberg et al., 2022]). Briefly, the activity was tested in buffer (10 mM Tris-Cl, 150 mM NaCl, 10 mM MgCl2·6 H2O, 1 mM CaCl2·2 H2O, 0.1% w/v BSA, 0.01% v/v Triton-X100, pH 7.4) utilizing clear flat-bottom, black polystyrene 96-well plates. The enzymes (human β-FXIIa, HFXIIAB, > 95% purity; Molecular Innovations, 2.5 nM – final concentration; human α-thrombin (active) protein, ABIN2127880, > 95% purity; antibodies-online, 0.25 nM – final concentration; human Factor Xa, HFXA, > 95% purity; Molecular Innovations, 2.5 nM – final concentration; human factor XIa, HFXIA, >95% purity; Molecular Innovations, 0.5 nM – final concentration porcine trypsin; Merck, 3.5 nM – final concentration) and the fluorogenic substrates for FXIIa: Boc-Gln-Gly-Arg-AMC (Pepta Nova, 25 µM – final concentration, Km = 167 µM); for thrombin: Boc Val Pro Arg AMC (Pepta Nova, 25 µM – final concentration, Km = 18 µM); for FXa: Boc-Ile-Glu-Gly-Arg-AMC (Pepta Nova, 25 µM – final concentration); for FXIa: Boc-Glu-(OBzl)-Ala-Arg-AMC (Pepta Nova, 25 µM – final concentration); for trypsin: Z-Gly-Gly-Arg-AMC (Sigma-Aldrich, 25 µM – final concentration) were used. The fluorogenic substrate solution was added into the wells followed by the addition of test-compounds solution, and the reaction was triggered by addition of the enzyme solution (final testing volume – 150 µL). In case of blank (substrate + buffer) and control (substrate + enzyme) wells, DMSO was added instead of the test-compounds’ solution. Fluorescence intensity was measured with Microplate Reader Mithras LB 940 (Berthold Technologies, excitation at 355 nm, emission at 460 nm) for a period of 1 h with a read every minute. The reactions were performed at 25 °C. To derive % of enzyme inhibition, endpoint RFU (single fluorescence reading after 1 h) was used. As a positive controls for thrombin, FXa, FXIIa, FXIa, and trypsin were used dabigatran (500 nM), rivaroxaban (500 nM), compound “39b” (500 nM) ([Platte et al., 2021]), Inhibitor 5t (8 µM) ([Imberg et al., 2022]), Inhibitor E (2 µM) ([Erbacher et al., 2024]), respectively. Semi-synthesized compounds were screened at 200 µM.

human Factor Xa = biological target: T2, human Factor Xa (Homo sapiens, UniProt P00742); test: Serine protease inhibition assay, fluorogenic substrate, FXa; format: biochemical; conditions: 200 µM, endpoint RFU after 1 h, 25 °C
T2 construct: human Factor Xa, HFXA, > 95% purity; Molecular Innovations; purchased Molecular Innovations HFXA
T2 sequence (P00742 235-488 limits assumed): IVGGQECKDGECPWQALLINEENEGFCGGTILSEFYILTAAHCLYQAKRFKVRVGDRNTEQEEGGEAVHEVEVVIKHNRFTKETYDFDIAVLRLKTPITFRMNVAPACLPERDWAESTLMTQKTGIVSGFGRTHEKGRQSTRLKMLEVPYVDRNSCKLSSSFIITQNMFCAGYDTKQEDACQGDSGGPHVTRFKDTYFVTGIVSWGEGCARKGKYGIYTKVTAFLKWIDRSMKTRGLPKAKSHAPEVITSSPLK
T2 sequence (P00742 41-179 partner limits assumed): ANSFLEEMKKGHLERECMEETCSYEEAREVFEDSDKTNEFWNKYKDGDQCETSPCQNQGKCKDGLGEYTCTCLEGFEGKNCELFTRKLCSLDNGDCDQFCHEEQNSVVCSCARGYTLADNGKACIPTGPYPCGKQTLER
Description: (§2) The inhibitory activity of further semi-synthesized compounds toward the coagulation factor XIIa, thrombin, FXIa, FXa, and trypsin was measured by quantifying the hydrolysis rate of the fluorogenic substrates as reported previously ([Korff et al., 2020]; [Platte et al., 2021]; [Imberg et al., 2022]). Briefly, the activity was tested in buffer (10 mM Tris-Cl, 150 mM NaCl, 10 mM MgCl2·6 H2O, 1 mM CaCl2·2 H2O, 0.1% w/v BSA, 0.01% v/v Triton-X100, pH 7.4) utilizing clear flat-bottom, black polystyrene 96-well plates. […] Fluorescence intensity was measured with Microplate Reader Mithras LB 940 (Berthold Technologies, excitation at 355 nm, emission at 460 nm) for a period of 1 h with a read every minute. […] To derive % of enzyme inhibition, endpoint RFU (single fluorescence reading after 1 h) was used. […]

human factor XIa = biological target: T3, human factor XIa (Homo sapiens, UniProt P03951); test: Serine protease inhibition assay, fluorogenic substrate, FXIa; format: biochemical; conditions: endpoint RFU after 1 h, 25 °C
T3 construct: human factor XIa, HFXIA, >95% purity; Molecular Innovations; purchased Molecular Innovations HFXIA
T3 sequence (P03951 388-625 limits assumed): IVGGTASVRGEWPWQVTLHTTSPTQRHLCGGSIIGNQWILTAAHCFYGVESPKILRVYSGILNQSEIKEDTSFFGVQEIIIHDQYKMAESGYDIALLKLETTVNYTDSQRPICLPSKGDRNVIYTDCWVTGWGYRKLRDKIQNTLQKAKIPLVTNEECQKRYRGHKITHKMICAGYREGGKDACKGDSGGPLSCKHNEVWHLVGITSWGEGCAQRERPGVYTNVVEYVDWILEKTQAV
T3 sequence (P03951 19-387 partner limits assumed): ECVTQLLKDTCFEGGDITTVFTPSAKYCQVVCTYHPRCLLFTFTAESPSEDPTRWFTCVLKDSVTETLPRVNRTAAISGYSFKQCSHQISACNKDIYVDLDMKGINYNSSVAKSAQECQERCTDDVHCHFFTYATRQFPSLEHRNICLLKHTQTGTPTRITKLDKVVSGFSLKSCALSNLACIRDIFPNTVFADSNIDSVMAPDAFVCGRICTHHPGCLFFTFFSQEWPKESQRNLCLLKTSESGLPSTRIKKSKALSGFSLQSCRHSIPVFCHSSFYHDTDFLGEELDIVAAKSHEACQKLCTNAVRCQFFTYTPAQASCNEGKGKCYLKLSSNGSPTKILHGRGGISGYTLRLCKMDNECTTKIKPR
Description: as §1

porcine trypsin = biological target: T4, porcine trypsin (Sus scrofa, UniProt P00761); test: Serine protease inhibition assay, fluorogenic substrate, trypsin; format: biochemical; conditions: 200 µM, endpoint RFU after 1 h, 25 °C
T4 construct: porcine trypsin; Merck, 3.5 nM – final concentration; purchased Merck
T4 sequence (P00761 9-231): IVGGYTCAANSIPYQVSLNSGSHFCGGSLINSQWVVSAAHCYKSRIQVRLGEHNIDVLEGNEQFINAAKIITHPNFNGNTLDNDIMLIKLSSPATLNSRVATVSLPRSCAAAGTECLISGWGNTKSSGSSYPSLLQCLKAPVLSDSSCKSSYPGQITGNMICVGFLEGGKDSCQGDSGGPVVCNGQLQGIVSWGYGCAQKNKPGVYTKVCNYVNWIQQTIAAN
Description: as §2

[1] = Precipitation in cell culture medium; format: physicochemical; conditions: cell culture medium (DMEM), 0.5% DMSO
[2] = Hepatic phase I metabolism (oxidation), human microsomes; format: in vitro ADME; conditions: 10 µM, 90 min
Description: (§3) Liver microsomes and cytosol were obtained for two organisms, horse and human. Fresh horse liver was purchased locally cut to pieces of ca. 50 g each and frozen in liquid nitrogen. Until further usage, the liver was stored at -80 °C. The preparation of microsomes and cytosol was carried out according to Balk et al. ([Balk et al., 1984]), and the protein content was determined by Bradford assay with bovine serum albumin as a reference ([Bradford, 1976]). Human liver microsomes and cytosol (150 Donors Ultrapool™) were provided by Corning, Inc. (Corning, New York, NY, USA). Besides assay-specific positive controls, all assays included stability controls, moreover, matrix influences were considered. For oxidation, additional non-oxidation controls were included. Each experiment was performed in duplicate. All stated concentrations are final concentration values. The test compounds (acetoxystachybotrylactam acetate-tryptophan 2a, 2b and acetoxystachybotrylactam acetate-tryptamine 3a, 3b ) were extended by the most biologically active derivative previously characterized by our group (acetoxystachybotrylactam acetate-agmatine 4 ) ([Steinert et al., 2022]).
(§4) The phase I metabolism was investigated utilizing a NADPH- regenerating system. […] After centrifugation (4 °C, 10 min, 15,000 rpm), 150 µL of supernatant was diluted with 850 µL H2O, which was subsequently analyzed by HPLC-qToF-HRMS. […]

[3] = Hepatic phase I metabolism (oxidation), horse microsomes; format: in vitro ADME; conditions: 10 µM, 90 min
Description: as §3, §4

[4] = Hepatic phase II sulfation, human cytosol; format: in vitro ADME; conditions: 50 µM, 4 h
Description: as §3
(§5) For phase II metabolism, potential sulfation and glucuronidation were investigated. For sulfation, the reaction mixture was pipetted as follows: first, ultrapure water was added and mixed with a 1 mM DTT solution (contains DTT, 100 mM phosphate buffer, 100 µM ascorbic acid, pH 7.4). Then, PAPS (100 µM) and the substance of interest (50 µM) were added, which was concluded by the addition of horse/human cytosol (10 mg protein/mL). For glucuronidation, first, ultrapure H2O, phosphate buffer (50 mM) and MgCl2 (5 mM) were added to the reaction vessel, followed by addition of the investigated substance (50 µM), UDPGA (5 µM), and horse/human microsomes (1 mg protein/mL), respectively. For both assays, the final volume was 100 µL which was subsequently incubated for 4 h at 37 °C in darkness. […] After centrifugation (4 °C, 10 min, 15,000 rpm), 150 µL of supernatant was diluted with 850 µL H2O, which was subsequently analyzed by HPLC-qToF-HRMS. […]

[5] = Hepatic phase II sulfation, horse cytosol; format: in vitro ADME; conditions: 50 µM, 4 h
Description: as §3, §5

[6] = Hepatic phase II glucuronidation, human microsomes; format: in vitro ADME; conditions: 50 µM, 4 h; for glucuronidation: conversion and formation of glucuronides, in words: human microsomes
Description: as §3
For phase II metabolism, potential sulfation and glucuronidation were investigated. For sulfation, the reaction mixture was pipetted as follows: first, ultrapure water was added and mixed with a 1 mM DTT solution (contains DTT, 100 mM phosphate buffer, 100 µM ascorbic acid, pH 7.4). Then, PAPS (100 µM) and the substance of interest (50 µM) were added, which was concluded by the addition of horse/human cytosol (10 mg protein/mL). For glucuronidation, first, ultrapure H2O, phosphate buffer (50 mM) and MgCl2 (5 mM) were added to the reaction vessel, followed by addition of the investigated substance (50 µM), UDPGA (5 µM), and horse/human microsomes (1 mg protein/mL), respectively. For both assays, the final volume was 100 µL which was subsequently incubated for 4 h at 37 °C in darkness. Quenching and protein precipitation was achieved by adding 200 µL of cold MeCN (-20 °C). After centrifugation (4 °C, 10 min, 15,000 rpm), 150 µL of supernatant was diluted with 850 µL H2O, which was subsequently analyzed by HPLC-qToF-HRMS. For both experiments, 50 µM 7-hydroxycumarin served as positive control.
Chromatographic separation and mass spectrometric detection were identical to the parameters already described for the fragmentation experiments for phase I and phase II glucuronidation metabolism. For sulfation, the HPLC-qToF-HRMS was operated in negative ionization mode at -4.5 kV and otherwise identical source parameters as previously described. […]

[7] = Hepatic phase II glucuronidation, horse microsomes; format: in vitro ADME; conditions: 50 µM, 4 h; for glucuronidation: conversion and formation of glucuronides, in words: horse microsomes
Description: as §3, §5

[8] = system: Human liver carcinoma cells (HepG2, HB-8065); design: method as in Steinert et al., 2022; conditions: 50 µM, 24 h; data of Figure 8 for compound 1 from previous investigation; ref Steinert et al., 2022; cited from earlier work
[9] = system: lung adenocarcinoma cells (A549, CCL-185); conditions: A549, 24 h incubation, resazurin
[10] = system: Human liver carcinoma cells (HepG2, HB-8065); conditions: HepG2, 24 h incubation, resazurin

Row | Structure (SMILES) | cell damage seen in the micronucleus assay (slides excluded from evaluation) (HepG2) | inhibition of FXIIa (human β-FXIIa) | inhibition of FXa (human Factor Xa) | inhibition at 200 µM (human factor XIa) [%] | inhibition of trypsin (porcine trypsin) | concentration at which precipitation in cell culture medium starts [1] [µM] | phase I conversion, in words [2] | phase I conversion, in words [3] | metabolism under sulfation conditions, in words [4] | metabolism under sulfation conditions, in words [5] | glucuronidation: conversion and formation of glucuronides, in words [6] | remaining parental compound, glucuronidation (phase II) ([6]; human, 37 °C, normalized to stability control, n.d. = not detected) | glucuronidation: conversion and formation of glucuronides, in words [7] | remaining parental compound, glucuronidation (phase II) ([7]; horse, 37 °C, normalized to stability control, n.d. = not detected) | HepG2 cell viability [8] | cytotoxicity (cell viability, T/C), in words [9] | inhibition at 200 µM (human β-FXIIa) [%] | cytotoxicity (cell viability, T/C), in words [10]
1 | CC(=O)OC1CC2(C)C(CCC(C)C23Cc2c(O)cc4c(c2O3)CN(CCc2c[nH]c3ccccc23)C4=O)C(C)(C)C1OC(C)=O (centres unmarked) [Compound 3a, Acetoxystachybotrylactam acetate-tryptamine] | impaired cell viability even more | no inhibition | no inhibition | 9 | no inhibition | ≥ 10 |  |  |  |  |  |  |  |  |  |  |  | 
2 | CC(=O)O[C@@H]1[C@H](OC(C)=O)C[C@@]2(C)C(CC[C@@H](C)[C@]23Cc2c(O)cc(C=O)c(C=O)c2O3)C1(C)C (some centres unmarked) [Compound 1, acetoxystachybotrydial acetate] | left the cells visibly damaged |  |  |  |  |  | metabolized fastest | metabolized fastest | did undergo metabolism | did undergo metabolism | did not at all | no 1 remaining in solution | did not at all | no 1 remaining in solution | below 50% |  |  | 
3 | CC(=O)OC1CC2(C)C(CCC(C)C23Cc2c(O)cc4c(c2O3)C(=O)N(CCc2c[nH]c3ccccc23)C4)C(C)(C)C1OC(C)=O (centres unmarked) [Compound 3b, Acetoxystachybotrylactam acetate-tryptamine] |  | no inhibition | no inhibition | 17 | no inhibition | ≥ 1 |  |  | did undergo metabolism | did undergo metabolism |  |  |  |  |  | no impact on cell viability was observed |  | 
4 | CC(=O)OC1CC2(C)C(CCC(C)C23Cc2c(O)cc4c(c2O3)CN(C(Cc2c[nH]c3ccccc23)C(=O)O)C4=O)C(C)(C)C1OC(C)=O (centres unmarked) [Compound 2a, Acetoxystachybotrylactam acetate-tryptophan] |  |  |  | 51 |  |  |  |  |  |  |  |  |  |  |  |  | 63 | more toxic
5 | CC(=O)OC1CC2(C)C(CCC(C)C23Cc2c(O)cc4c(c2O3)C(=O)N(C(Cc2c[nH]c3ccccc23)C(=O)O)C4)C(C)(C)C1OC(C)=O (centres unmarked) [Compound 2b, Acetoxystachybotrylactam acetate-tryptophan] |  |  |  | 66 |  |  |  |  |  |  | more readily converted; also recorded: more available for glucuronidation than 2a |  | more readily converted; also recorded: more available for glucuronidation than 2a |  |  |  | 34 | less cytotoxic
